# Experiment: Gas-phase evaluation of each fragrance ingredient alone against model scalp malodour, MiniVAS device, panel of 5 experts
# Conditions: Table 3, air flow 50 ml/min, scale of 1-5 (1=barely noticeable, 5=very strong)
# Method: In a first set of experiments, the scalp malodour counteractancy of 173 fragrance ingredients was evaluated by panel of 5 experts.
# The evaluation was performed in the gas phase, using a MiniVAS™ device (ex Givaudan SA). This device is a regulating means that comprises a plurality of channels adapted to convey a gas (more particularly air) through cartridges, each cartridge containing a fragrance ingredient adsorbed onto an adsorbent. The air flows coming from the different cartridges are admixed and conveyed to the user's nose through a tubing fitted with an olfactometer funnel. Thus, by opening and closing channels and maintaining these opened and closed, respectively, for predetermined times, the regulating means can determine which fragrance ingredients and how much thereof are conveyed and when, and thus alter the nature of the fragrance perceived by the user. A description of the device can be found in WO2014154909A1, page 2, line 11 to page 4, line 7, and in H. R. Gygax et al. “Evolution of Real Time Aroma Creation at Givaudan”, poster presented at the 12th Weurman Flavour Research Symposium. July 2008. Interlaken, Switzerland; DOI: 10.13140/2.1.1924.0641.
# For the sake of the present evaluation, one cartridge contained the scalp malodour (in the form of a model malodour) and each fragrance ingredient was assigned to another cartridge. The malodour counteractancy of each fragrance ingredient was evaluated separately against the scalp malodour. A constant air flow rate of 50 ml/min was used for all measurements. The perceived malodour intensity, as well as the fragrance intensity, were ranked on a scale of 1-5 (1=barely noticeable, 2=weak, 3=medium, 4=strong and 5=very strong).
row,Structure (SMILES),MO intensity
1,COc1cc(C=O)ccc1OC(=O)C(C)C [4-formyl-2-methoxyphenyl 2-methylpropanoate],1.5
2,COc1ccc(C=O)cc1 [4-methoxybenzaldehyde],3
3,CCCCCCC1CCC(=O)O1 (stereo not drawn) [5-hexyloxolan-2-one],3
4,CCCC1(C(C)(C)C)C=CC(C)O1 (stereo not drawn) [5-tert-butyl-2-methyl-5-propyl-2H-furan],4
5,CCCCCCCC1CCCC(=O)O1 (stereo not drawn) [6-heptyltetrahydro-2H-pyran-2-one],3
6,"CCC(C)(CCCC(C)C=O)OC (stereo not drawn) [6-methoxy-2,6-dimethyloctanal]",3
7,"CC(CC=O)CCCC(C)(C)O (stereo not drawn) [7-hydroxy-3,7-dimethyloctanal]",2
8,"CC(C)CCc1ccc2c(c1)OCC(=O)CO2 [7-isopentyl-2H-benzo[b][1,4]dioxepin-3(4H)-one]",4.5
9,"Cc1ccc2c(c1)OCC(=O)CO2 [8-methyl-1,5-benzodioxepin-3-one]",3.5
10,CC1CCC2(CCC(=O)O2)CC1 (stereo not drawn) [8-methyl-1-oxaspiro[4.5]decan-2-one],2.7
11,"CC1(C)[C@H]2CC[C@]1(C)C(=O)C2 [(1S,4S)-1,7,7-trimethylbicyclo[2.2.1]heptan-2-one]",4.5
12,"CC(=O)O[C@]1(C)CC[C@]23CC1C(C)(C)C2CC[C@@H]3C (stereo partly drawn) [(1S,6R,8aR)-1,4,4,6-tetramethyloctahydro-1H-5,8a-methanoazulen-6-yl acetate]",1
13,"C/C=C/C(=O)/C(C)=C(\C)C(C)C [(2E,5E)-5,6,7-trimethylocta-2,5-dien-4-one]",1.5
14,"CC1=CC[C@H]2C(C1)C1CC2[C@@]2(C1)OC2C (stereo partly drawn) [(2R,8aS)-3′,6-dimethyl-3,4,4a,5,8,8a-hexahydro-1H-spiro[1,4-methanonaphthalene-2,2′-oxirane]]",1
15,"CC1(C)CCC[C@]2(C)[C@H]3CCO[C@]3(C)CC[C@@H]12 [(3aR,5aS,9aS,9bR)-3a,6,6,9a-tetramethyl-2,4,5,5a,7,8,9,9b-octahydro-1H-benzo[e][1]benzofuran]",1
16,CC(C)C1CCC(CO)CC1 (stereo not drawn) [(4-isopropylcyclohexyl)methanol],3
17,CC(C)c1ccc(CO)cc1 [(4-isopropylphenyl)methanol],2
18,"C/C(=C\CCC=O)CCCC(C)(C)O [(4E)-9-hydroxy-5,9-dimethyl-4-decenal]",1
19,"C[C@@H]1CC[C@H]2C(C)(C)[C@H]3C[C@@]12CC1OC(C)(C)OC13C (stereo partly drawn) [(4aR,5R,7aS,9R)-Octahydro-2,2,5,8,8,9a-hexamethyl-4H-4a,9-methanoazuleno[5,6-d]-1,3-dioxole]",4
20,"C/C=C/C(=O)C1=C(C)CCCC1(C)C [(E)-1-(2,6,6-trimethyl-1-cyclohexenyl)but-2-en-1-one]",2.8
21,"C/C=C/C(=O)C1C(C)=CCCC1(C)C (stereo not drawn) [(E)-1-(2,6,6-trimethylcyclohex-2-en-1-yl)but-2-en-1-one]",3.7
22,"CCC(=O)/C=C/C1C(C)=CCCC1(C)C (stereo not drawn) [(E)-1-(2,6,6-trimethylcyclohex-2-en-1-yl)pent-1-en-3-one]",3
23,"C/C=C/C(=O)C1=C(C)C=CCC1(C)C [(E)-1-(2,6,6-trimethylcyclohexa-1,3-dien-1-yl)but-2-en-1-one]",2.8
24,C/C=C/c1ccc(OC)cc1 [(E)-1-methoxy-4-(prop-1-en-1-yl)benzene],4
25,C/C=C/c1ccc(O)c(OC)c1 [(E)-2-methoxy-4-(prop-1-en-1-yl)phenol],4.5

# Same assay, conditions: Table 3, gas phase, expert description
row,Structure (SMILES),Scalp MOC of ingredient alone
1,"CC(=O)O[C@]1(C)CC[C@]23CC1C(C)(C)C2CC[C@@H]3C (stereo partly drawn) [(1S,6R,8aR)-1,4,4,6-tetramethyloctahydro-1H-5,8a-methanoazulen-6-yl acetate]",No effect
2,"CC1=CC[C@H]2C(C1)C1CC2[C@@]2(C1)OC2C (stereo partly drawn) [(2R,8aS)-3′,6-dimethyl-3,4,4a,5,8,8a-hexahydro-1H-spiro[1,4-methanonaphthalene-2,2′-oxirane]]",No effect
3,"CC1(C)CCC[C@]2(C)[C@H]3CCO[C@]3(C)CC[C@@H]12 [(3aR,5aS,9aS,9bR)-3a,6,6,9a-tetramethyl-2,4,5,5a,7,8,9,9b-octahydro-1H-benzo[e][1]benzofuran]",No effect
4,"C/C(=C\CCC=O)CCCC(C)(C)O [(4E)-9-hydroxy-5,9-dimethyl-4-decenal]",No effect
5,"C/C=C/C(=O)C1=C(C)CCCC1(C)C [(E)-1-(2,6,6-trimethyl-1-cyclohexenyl)but-2-en-1-one]",Coverage

# Same assay, conditions: Table 4, air flow 50 ml/min, scale of 1-5
row,Structure (SMILES),MO intensity
1,C=CCc1ccc(OC(C)=O)c(OC)c1 [4-allyl-2-methoxyphenyl acetate],1
2,CCCCC1CCC(=O)O1 (stereo not drawn) [5-butyloxolan-2-one],3.8
3,CCCC1CCCC(=O)O1 (stereo not drawn) [6-propyltetrahydro-2H-pyran-2-one],3.8
4,"OCC1COC(Cc2ccccc2)O1 (stereo not drawn) [(2-benzyl-1,3-dioxolan-4-yl)methanol]",1
5,"CCCCC/C=C\C=C\C(=O)OCC [(2E,4Z)-ethyl deca-2,4-dienoate]",1
6,"CC(=O)O[C@H]1CC2CC1[C@H]1CC=C[C@@H]21 (stereo partly drawn) [(3aR,6S,7aS)-3a,4,5,6,7,7a-hexahydro-1H-4,7-methanoinden-6-yl acetate]",3.8
7,"CCC(=O)O[C@H]1CC2CC1[C@H]1CC=C[C@@H]21 (stereo partly drawn) [(3aR,6S,7aS)-3a,4,5,6,7,7a-hexahydro-1H-4,7-methanoinden-6-yl propanoate]",1.3
8,C=C(C)[C@@H]1CC=C(C)C(=O)C1 [(5R)-2-methyl-5-prop-1-en-2-ylcyclohex-2-en-1-one],0
9,"C/C=C/c1ccc(OC)c(OC)c1 [(E)-1,2-dimethoxy-4-(prop-1-en-1-yl)benzene]",3.3
10,"C=CCCC(=O)/C=C/C1C(C)=CCCC1(C)C (stereo not drawn) [(E)-1-(2,6,6-trimethylcyclohex-2-en-1-yl)hepta-1,6-dien-3-one]",3
11,"C/C(=C\C(C)C)C(C)OC(C)(C)COC(=O)C1CC1 (stereo not drawn) [(E)-2-((3,5-dimethylhex-3-en-2-yl)oxy)-2-methylpropyl cyclopropanecarboxylate]",1
12,CCCCCC/C(C=O)=C\c1ccccc1 [(E)-2-benzylideneoctanal],1.2

# Same assay, conditions: Table 4, gas phase, expert description
row,Structure (SMILES),Scalp MOC of ingredient alone
1,C=C(C)[C@@H]1CC=C(C)C(=O)C1 [(5R)-2-methyl-5-prop-1-en-2-ylcyclohex-2-en-1-one],Enhances MO
2,"C=CCCC(=O)/C=C/C1C(C)=CCCC1(C)C (stereo not drawn) [(E)-1-(2,6,6-trimethylcyclohex-2-en-1-yl)hepta-1,6-dien-3-one]",Good coverage

# Experiment: Impact of fragrance ingredients on scalp malodour counteractancy of 80 fragrance compositions (Example 2 protocol, statistical presence)
# Conditions: Table 3; series of 80 fragrance compositions
# Method: In a second set of experiments, the impact of these fragrance ingredients on the scalp malodour counteractancy of a fragrance composition was assessed. The scalp malodour counteractancy of a series of 80 fragrance compositions was assessed by performing the evaluation protocol described in Example 2. […] Ingredients that were statistically more present in fragrances having a high malodour counteractancy were assigned a positive status, whereas ingredients that were statistically more present in compositions having a low malodour counteractancy were assigned a negative status.
row,Structure (SMILES),Impact on scalp MOC of fragrance composition
1,COc1cc(C=O)ccc1OC(=O)C(C)C [4-formyl-2-methoxyphenyl 2-methylpropanoate],Positive
2,COc1ccc(C=O)cc1 [4-methoxybenzaldehyde],Positive
3,CCCCCCC1CCC(=O)O1 (stereo not drawn) [5-hexyloxolan-2-one],Positive
4,CCCC1(C(C)(C)C)C=CC(C)O1 (stereo not drawn) [5-tert-butyl-2-methyl-5-propyl-2H-furan],Positive
5,CCCCCCCC1CCCC(=O)O1 (stereo not drawn) [6-heptyltetrahydro-2H-pyran-2-one],Positive
6,"CCC(C)(CCCC(C)C=O)OC (stereo not drawn) [6-methoxy-2,6-dimethyloctanal]",Positive
7,"CC(CC=O)CCCC(C)(C)O (stereo not drawn) [7-hydroxy-3,7-dimethyloctanal]",Positive
8,"CC(C)CCc1ccc2c(c1)OCC(=O)CO2 [7-isopentyl-2H-benzo[b][1,4]dioxepin-3(4H)-one]",Positive
9,"Cc1ccc2c(c1)OCC(=O)CO2 [8-methyl-1,5-benzodioxepin-3-one]",Positive
10,CC1CCC2(CCC(=O)O2)CC1 (stereo not drawn) [8-methyl-1-oxaspiro[4.5]decan-2-one],Positive
11,"CC1(C)[C@H]2CC[C@]1(C)C(=O)C2 [(1S,4S)-1,7,7-trimethylbicyclo[2.2.1]heptan-2-one]",Positive
12,"CC(=O)O[C@]1(C)CC[C@]23CC1C(C)(C)C2CC[C@@H]3C (stereo partly drawn) [(1S,6R,8aR)-1,4,4,6-tetramethyloctahydro-1H-5,8a-methanoazulen-6-yl acetate]",Positive
13,"C/C=C/C(=O)/C(C)=C(\C)C(C)C [(2E,5E)-5,6,7-trimethylocta-2,5-dien-4-one]",Positive
14,"CC1=CC[C@H]2C(C1)C1CC2[C@@]2(C1)OC2C (stereo partly drawn) [(2R,8aS)-3′,6-dimethyl-3,4,4a,5,8,8a-hexahydro-1H-spiro[1,4-methanonaphthalene-2,2′-oxirane]]",Positive
15,"CC1(C)CCC[C@]2(C)[C@H]3CCO[C@]3(C)CC[C@@H]12 [(3aR,5aS,9aS,9bR)-3a,6,6,9a-tetramethyl-2,4,5,5a,7,8,9,9b-octahydro-1H-benzo[e][1]benzofuran]",Positive
16,CC(C)C1CCC(CO)CC1 (stereo not drawn) [(4-isopropylcyclohexyl)methanol],Positive
17,CC(C)c1ccc(CO)cc1 [(4-isopropylphenyl)methanol],Positive
18,"C/C(=C\CCC=O)CCCC(C)(C)O [(4E)-9-hydroxy-5,9-dimethyl-4-decenal]",Positive
19,"C[C@@H]1CC[C@H]2C(C)(C)[C@H]3C[C@@]12CC1OC(C)(C)OC13C (stereo partly drawn) [(4aR,5R,7aS,9R)-Octahydro-2,2,5,8,8,9a-hexamethyl-4H-4a,9-methanoazuleno[5,6-d]-1,3-dioxole]",Positive
20,"C/C=C/C(=O)C1=C(C)CCCC1(C)C [(E)-1-(2,6,6-trimethyl-1-cyclohexenyl)but-2-en-1-one]",Positive
21,"C/C=C/C(=O)C1C(C)=CCCC1(C)C (stereo not drawn) [(E)-1-(2,6,6-trimethylcyclohex-2-en-1-yl)but-2-en-1-one]",Positive
22,"CCC(=O)/C=C/C1C(C)=CCCC1(C)C (stereo not drawn) [(E)-1-(2,6,6-trimethylcyclohex-2-en-1-yl)pent-1-en-3-one]",Positive
23,"C/C=C/C(=O)C1=C(C)C=CCC1(C)C [(E)-1-(2,6,6-trimethylcyclohexa-1,3-dien-1-yl)but-2-en-1-one]",Positive
24,C/C=C/c1ccc(OC)cc1 [(E)-1-methoxy-4-(prop-1-en-1-yl)benzene],Positive
25,C/C=C/c1ccc(O)c(OC)c1 [(E)-2-methoxy-4-(prop-1-en-1-yl)phenol],Positive

# Same assay, conditions: Table 4; series of 80 fragrance compositions
row,Structure (SMILES),Impact on scalp MOC of fragrance composition
1,C=CCc1ccc(OC(C)=O)c(OC)c1 [4-allyl-2-methoxyphenyl acetate],Negative
2,CCCCC1CCC(=O)O1 (stereo not drawn) [5-butyloxolan-2-one],Negative
3,CCCC1CCCC(=O)O1 (stereo not drawn) [6-propyltetrahydro-2H-pyran-2-one],Negative
4,"OCC1COC(Cc2ccccc2)O1 (stereo not drawn) [(2-benzyl-1,3-dioxolan-4-yl)methanol]",Negative
5,"CCCCC/C=C\C=C\C(=O)OCC [(2E,4Z)-ethyl deca-2,4-dienoate]",Negative
6,"CC(=O)O[C@H]1CC2CC1[C@H]1CC=C[C@@H]21 (stereo partly drawn) [(3aR,6S,7aS)-3a,4,5,6,7,7a-hexahydro-1H-4,7-methanoinden-6-yl acetate]",Negative
7,"CCC(=O)O[C@H]1CC2CC1[C@H]1CC=C[C@@H]21 (stereo partly drawn) [(3aR,6S,7aS)-3a,4,5,6,7,7a-hexahydro-1H-4,7-methanoinden-6-yl propanoate]",Negative
8,C=C(C)[C@@H]1CC=C(C)C(=O)C1 [(5R)-2-methyl-5-prop-1-en-2-ylcyclohex-2-en-1-one],Negative
9,"C/C=C/c1ccc(OC)c(OC)c1 [(E)-1,2-dimethoxy-4-(prop-1-en-1-yl)benzene]",Negative
10,"C=CCCC(=O)/C=C/C1C(C)=CCCC1(C)C (stereo not drawn) [(E)-1-(2,6,6-trimethylcyclohex-2-en-1-yl)hepta-1,6-dien-3-one]",Negative
11,"C/C(=C\C(C)C)C(C)OC(C)(C)COC(=O)C1CC1 (stereo not drawn) [(E)-2-((3,5-dimethylhex-3-en-2-yl)oxy)-2-methylpropyl cyclopropanecarboxylate]",Negative
12,CCCCCC/C(C=O)=C\c1ccccc1 [(E)-2-benzylideneoctanal],Negative

# From patent US20260272797A1, “FRAGRANCE COMPOSITION” (GIVAUDAN SA, priority 2023, published 2026)
